Data from patent publication US20250262336A1, “[177LU] LUTETIUM-PSMA I&T COMPOSITION AND DOSIMETRY, KIT, METHOD OF MAKING, AND METHOD OF USING THEREOF” (Curium US LLC, priority 2023, published 2025).

Columns and labels:
[1] = Cycle 3 biodistribution and dosimetry (SPECT/CT, single or multiple time points); type: in vivo, human
Experimental: (§1) To evaluate potential changes in the tracer's kinetics and uptake after multiple treatment cycles, 16 of the 27 patients included in the dosimetry sub study, were imaged at both cycle 1 and cycle 3. Among these, at cycle 3, three patients were imaged at all 4 timepoints and the other 13 were imaged at one or two timepoints only (24 h, 48 h or both 24 h and 48 h) (Table 2). For these 13 patients, the TACs obtained at cycle 1 were used for each source organ and scaled to the normalized activity value(s) measured at Cycle 3. For patients imaged at two timepoints, the TACs were preferably scaled using the average scaling factor between the two timepoints.
(§2) A subgroup of 16 out of the 27 patients underwent and additional dosimetry assessment at Cycle 3. Among these, three patients had dosimetry performed based on images taken at 4 timepoints, while the remaining patients had dosimetry performed at 1 or 2 imaging timepoints only.
as §1, with “7 in Appendix 1).” for “2).”
as §2, with “only, as described in Section 4.4.1.” for “only.”

[2] = Cycle 3 plasma PK modelling; type: in vivo, human; details: n = 15
Experimental: Whole blood samples were collected as detailed in the protocol Schedule of Events i.e. pre-injection, and then at 1 h, 4 h, 24 h, 48 h, and 168 h post-injection. The samples were first centrifuged to separate plasma, and the radioactivity in the plasma was then measured using a gamma counter. Plasma concentrations were subsequently fitted with a bi-exponential function to derive outcome parameters such as the half-life and clearance rate of the radiopharmaceutical in the plasma.
(§3) Blood samples were obtained for 15 out of 16 patients at cycle 3. Patients 12-004 had blood taken only at the 24 h timepoint and, therefore, was not included in the plasma PK analysis. Consistent with Cycle 1, the time-course of plasma concentrations was similar among the patients. The ranges of PK parameters obtained at cycle 3 were similar to those from Cycle 1 data (Tables 9A and 9B).
as §3, with “(Table 29). See Table 29) Cycle 3 PK plasma modeling results (n15)” for “(Tables 9A and 9B).”

[3] = Lacrimal Glands (OLINDA sphere model), N = 16

O=C(O)CC[C@H](NC(=O)N[C@@H](CCCCNC(=O)CCCCCCC(=O)NCCCC[C@@H](NC(=O)[C@@H](Cc1ccccc1)NC(=O)[C@@H](Cc1ccc(O)c(I)c1)NC(=O)CC[C@H](C(=O)O)N1CCN(CC(=O)O)CCN(CC(=O)O)CCN(CC(=O)O)CC1)C(=O)O)C(=O)O)C(=O)O [^177Lu-PSMA-I&T, (3S,7 S,26R,29R,32R,37R)-29-benzyl-32-(4-hydroxy-3-iodobenzyl)-5,13,20,28,31,34-hexaoxo-37-(4,7,10-tris(carboxymethyl)-1,4,7,10-tetraazacyclododecan-1-yl)-4,6,12,21,27,30,33-heptaazaheptatriacontane-1,3,7,26,37-pentacarboxylic acid; lutetium-177 (III), metal not drawn]
Absorbed Dose in Cycle 3, Mean ([1]; Adrenals, N = 16): 0.02 Gy/GBq | Absorbed Dose in Cycle 3, max ([1]; Adrenals, N = 16): 0.03 Gy/GBq | Absorbed Dose in Cycle 3, min ([1]; Adrenals, N = 16): 0.01 Gy/GBq | Absorbed Dose in Cycle 3, Mean ([1]; Brain, N = 16): 0.01 Gy/GBq | Absorbed Dose in Cycle 3, max ([1]; Brain, N = 16): 0.02 Gy/GBq | Absorbed Dose in Cycle 3, min ([1]; Brain, N = 16): 0.00 Gy/GBq | Absorbed Dose in Cycle 3, Mean ([1]; Esophagus, N = 16): 0.01 Gy/GBq | Absorbed Dose in Cycle 3, max ([1]; Esophagus, N = 16): 0.02 Gy/GBq | Absorbed Dose in Cycle 3, min ([1]; Esophagus, N = 16): 0.00 Gy/GBq | Absorbed Dose in Cycle 3, Mean ([1]; Eyes, N = 16): 0.01 Gy/GBq | Absorbed Dose in Cycle 3, max ([1]; Eyes, N = 16): 0.02 Gy/GBq | Absorbed Dose in Cycle 3, min ([1]; Eyes, N = 16): 0.00 Gy/GBq | Absorbed Dose in Cycle 3, Mean ([1]; Gallbladder wall, N = 16): 0.01 Gy/GBq | Absorbed Dose in Cycle 3, max ([1]; Gallbladder wall, N = 16): 0.02 Gy/GBq | Absorbed Dose in Cycle 3, min ([1]; Gallbladder wall, N = 16): 0.00 Gy/GBq | Absorbed Dose in Cycle 3, Mean ([1]; Heart wall, N = 16): 0.01 Gy/GBq | Absorbed Dose in Cycle 3, max ([1]; Heart wall, N = 16): 0.02 Gy/GBq | Absorbed Dose in Cycle 3, min ([1]; Heart wall, N = 16): 0.00 Gy/GBq | Absorbed Dose in Cycle 3, Mean ([1]; Kidneys, N = 16): 0.49 Gy/GBq | Absorbed Dose in Cycle 3, max ([1]; Kidneys, N = 16): 0.85 Gy/GBq | Absorbed Dose in Cycle 3, min ([1]; Kidneys, N = 16): 0.19 Gy/GBq | Absorbed Dose in Cycle 3, Mean [1, 3]: 0.29 Gy/GBq | Absorbed Dose in Cycle 3, max [1, 3]: 0.73 Gy/GBq | Absorbed Dose in Cycle 3, min [1, 3]: 0.10 Gy/GBq | Absorbed Dose in Cycle 3, Mean ([1]; Left colon, N = 16): 0.41 Gy/GBq | Absorbed Dose in Cycle 3, max ([1]; Left colon, N = 16): 0.94 Gy/GBq | Absorbed Dose in Cycle 3, min ([1]; Left colon, N = 16): 0.07 Gy/GBq | Absorbed Dose in Cycle 3, Mean ([1]; Liver, N = 16): 0.06 Gy/GBq | Absorbed Dose in Cycle 3, max ([1]; Liver, N = 16): 0.15 Gy/GBq | Absorbed Dose in Cycle 3, min ([1]; Liver, N = 16): 0.00 Gy/GBq | Absorbed Dose in Cycle 3, Mean ([1]; Lungs, N = 16): 0.01 Gy/GBq | Absorbed Dose in Cycle 3, max ([1]; Lungs, N = 16): 0.02 Gy/GBq | Absorbed Dose in Cycle 3, min ([1]; Lungs, N = 16): 0.00 Gy/GBq | Absorbed Dose in Cycle 3, Mean ([1]; Osteogenic cells, N = 16): 0.02 Gy/GBq | Absorbed Dose in Cycle 3, max ([1]; Osteogenic cells, N = 16): 0.09 Gy/GBq | Absorbed Dose in Cycle 3, min ([1]; Osteogenic cells, N = 16): 0.00 Gy/GBq | Absorbed Dose in Cycle 3, Mean ([1]; Pancreas, N = 16): 0.01 Gy/GBq | Absorbed Dose in Cycle 3, max ([1]; Pancreas, N = 16): 0.02 Gy/GBq | Absorbed Dose in Cycle 3, min ([1]; Pancreas, N = 16): 0.00 Gy/GBq | Absorbed Dose in Cycle 3, Mean ([1]; Prostate, N = 16): 0.01 Gy/GBq | Absorbed Dose in Cycle 3, max ([1]; Prostate, N = 16): 0.02 Gy/GBq | Absorbed Dose in Cycle 3, min ([1]; Prostate, N = 16): 0.01 Gy/GBq | Absorbed Dose in Cycle 3, Mean ([1]; Rectum, N = 16): 0.39 Gy/GBq | Absorbed Dose in Cycle 3, max ([1]; Rectum, N = 16): 0.90 Gy/GBq | Absorbed Dose in Cycle 3, min ([1]; Rectum, N = 16): 0.06 Gy/GBq | Absorbed Dose in Cycle 3, Mean ([1]; Red Marrow, N = 16): 0.03 Gy/GBq | Absorbed Dose in Cycle 3, max ([1]; Red Marrow, N = 16): 0.17 Gy/GBq | Absorbed Dose in Cycle 3, min ([1]; Red Marrow, N = 16): 0.00 Gy/GBq | Absorbed Dose in Cycle 3, Mean ([1]; Right Colon, N = 16): 0.22 Gy/GBq | Absorbed Dose in Cycle 3, max ([1]; Right Colon, N = 16): 0.51 Gy/GBq | Absorbed Dose in Cycle 3, min ([1]; Right Colon, N = 16): 0.04 Gy/GBq | Absorbed Dose in Cycle 3, Mean ([1]; Salivary Glands, N = 16): 0.20 Gy/GBq | Absorbed Dose in Cycle 3, max ([1]; Salivary Glands, N = 16): 0.69 Gy/GBq | Absorbed Dose in Cycle 3, min ([1]; Salivary Glands, N = 16): 0.04 Gy/GBq | Absorbed Dose in Cycle 3, Mean ([1]; Small intestine, N = 16): 0.04 Gy/GBq | Absorbed Dose in Cycle 3, max ([1]; Small intestine, N = 16): 0.10 Gy/GBq | Absorbed Dose in Cycle 3, min ([1]; Small intestine, N = 16): 0.01 Gy/GBq | Absorbed Dose in Cycle 3, Mean ([1]; Spleen, N = 16): 0.03 Gy/GBq | Absorbed Dose in Cycle 3, max ([1]; Spleen, N = 16): 0.12 Gy/GBq | Absorbed Dose in Cycle 3, min ([1]; Spleen, N = 16): 0.01 Gy/GBq | Absorbed Dose in Cycle 3, Mean ([1]; Stomach Wall, N = 16): 0.01 Gy/GBq | Absorbed Dose in Cycle 3, max ([1]; Stomach Wall, N = 16): 0.02 Gy/GBq | Absorbed Dose in Cycle 3, min ([1]; Stomach Wall, N = 16): 0.00 Gy/GBq | Absorbed Dose in Cycle 3, Mean ([1]; Testes, N = 16): 0.01 Gy/GBq | Absorbed Dose in Cycle 3, max ([1]; Testes, N = 16): 0.02 Gy/GBq | Absorbed Dose in Cycle 3, min ([1]; Testes, N = 16): 0.00 Gy/GBq | Absorbed Dose in Cycle 3, Mean ([1]; Thymus, N = 16): 0.01 Gy/GBq | Absorbed Dose in Cycle 3, max ([1]; Thymus, N = 16): 0.02 Gy/GBq | Absorbed Dose in Cycle 3, min ([1]; Thymus, N = 16): 0.00 Gy/GBq | Absorbed Dose in Cycle 3, Mean ([1]; Thyroid, N = 16): 0.01 Gy/GBq | Absorbed Dose in Cycle 3, max ([1]; Thyroid, N = 16): 0.02 Gy/GBq | Absorbed Dose in Cycle 3, min ([1]; Thyroid, N = 16): 0.00 Gy/GBq | Absorbed Dose in Cycle 3, Mean ([1]; Total Body, N = 16): 0.02 Gy/GBq | Absorbed Dose in Cycle 3, max ([1]; Total Body, N = 16): 0.03 Gy/GBq | Absorbed Dose in Cycle 3, min ([1]; Total Body, N = 16): 0.01 Gy/GBq | Absorbed Dose in Cycle 3, Mean ([1]; Urinary Bladder wall, N = 16): 0.45 Gy/GBq | Absorbed Dose in Cycle 3, max ([1]; Urinary Bladder wall, N = 16): 0.70 Gy/GBq | Absorbed Dose in Cycle 3, min ([1]; Urinary Bladder wall, N = 16): 0.36 Gy/GBq | organ absorbed radiation dose, kidneys ([1]; cycle 3, 16 patients imaged at cycle 1 and 3): 0.49±0.19 Gy/GBq | Absorbed Dose in Cycle 3, Mean ([1]; in vivo): 0.29 Gy/GBq | Absorbed Dose in Cycle 3, max ([1]; in vivo): 0.73 Gy/GBq | Absorbed Dose in Cycle 3, min ([1]; in vivo): 0.10 Gy/GBq | AUC Total, Mean [2]: 25.58 fIA/L × min | AUC Total, max [2]: 39.62 fIA/L × min | AUC Total, median [2]: 24.55 fIA/L × min | AUC Total, min [2]: 13.86 fIA/L × min | Peak Concentration Value, Mean [2]: 0.05 fIA/L | Peak Concentration Value, max [2]: 0.07 fIA/L | Peak Concentration Value, median [2]: 0.04 fIA/L | Peak Concentration Value, min [2]: 0.03 fIA/L | Time of Peak Concentration [2]: 55.00 min | Time of Peak Concentration, Mean [2]: 60.67 min | Time of Peak Concentration, max [2]: 68.00 min | Time of Peak Concentration, median [2]: 60.00 min | Vc, Mean [2]: 16.40 L | Vc, max [2]: 24.53 L | Vc, median [2]: 16.42 L | Vc, min [2]: 10.66 L
